{
  "source": "paper PMC2897734",
  "about": "(Current topics in medicinal chemistry, 2009)",
  "type_in_all_cases": "binding",
  "key": {"uracil-DNA glycosylase [1]": {"target": "T1, uracil-DNA glycosylase (Leishmania naiffi, UniProt D0VWU0)", "T1 sequence (D0VWU0 1-260)": "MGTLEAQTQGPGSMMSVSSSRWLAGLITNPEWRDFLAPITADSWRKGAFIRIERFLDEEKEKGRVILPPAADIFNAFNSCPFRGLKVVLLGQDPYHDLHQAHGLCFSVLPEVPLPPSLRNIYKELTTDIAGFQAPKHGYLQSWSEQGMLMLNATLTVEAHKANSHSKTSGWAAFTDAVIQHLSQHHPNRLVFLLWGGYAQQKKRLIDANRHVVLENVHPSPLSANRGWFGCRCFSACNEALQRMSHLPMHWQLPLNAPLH", "assay": "fragment cocktail soak, crystal structure"}, "uracil-DNA glycosylase [2]": {"target": "T1, uracil-DNA glycosylase", "assay": "fragment cocktail soak, crystal structure", "remark": "listed apart in the source"}, "[3]": {"target": "T2, phosphoglycerate mutase (PGM) (Plasmodium falciparum, UniProt Q8IIG6)", "T2 sequence (Q8IIG6 1-250)": "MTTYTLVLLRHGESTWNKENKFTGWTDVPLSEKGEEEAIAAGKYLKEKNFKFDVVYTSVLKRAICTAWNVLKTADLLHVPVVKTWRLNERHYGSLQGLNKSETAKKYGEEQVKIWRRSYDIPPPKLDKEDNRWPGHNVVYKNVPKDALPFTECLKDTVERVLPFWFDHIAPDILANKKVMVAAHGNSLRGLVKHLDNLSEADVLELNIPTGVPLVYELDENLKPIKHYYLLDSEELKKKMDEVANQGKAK", "assay": "fragment cocktail soak, crystal electron density"}, "[4]": {"target": "coproporphyrinogen III oxidase (Leishmania major, UniProt P84155)", "sequence (P84155 whole entry, the tested form may be a part)": "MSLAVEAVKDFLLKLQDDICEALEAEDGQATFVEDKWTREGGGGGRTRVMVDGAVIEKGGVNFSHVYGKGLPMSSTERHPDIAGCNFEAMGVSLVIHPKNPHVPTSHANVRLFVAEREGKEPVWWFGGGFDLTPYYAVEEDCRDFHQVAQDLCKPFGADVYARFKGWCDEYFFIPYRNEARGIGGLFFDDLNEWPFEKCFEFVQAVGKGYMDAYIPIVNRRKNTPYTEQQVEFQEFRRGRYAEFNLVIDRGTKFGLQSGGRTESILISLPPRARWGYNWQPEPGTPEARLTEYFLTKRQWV", "assay": "fragment cocktail soak, crystal structure"}, "[5]": {"target": "T3, putative adenylate kinase (Leishmania major, UniProt Q4Q7A6)", "T3 sequence (Q4Q7A6 1-180)": "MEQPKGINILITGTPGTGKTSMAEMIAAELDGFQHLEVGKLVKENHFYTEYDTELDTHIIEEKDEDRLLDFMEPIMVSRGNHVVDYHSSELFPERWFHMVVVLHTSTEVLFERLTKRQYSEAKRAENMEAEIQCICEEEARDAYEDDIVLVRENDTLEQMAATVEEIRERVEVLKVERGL", "assay": "fragment cocktail soak, crystal electron density"}},
  "data": [
    {"smiles": "COc1ccc(Cl)cc1C(=O)O", "note": "[5-chloro-2-methoxybenzoic acid]", "values": [
      {"measurement": "IC50", "setting": "uracil-DNA glycosylase [1]", "value": "~15", "unit": "mM"}
    ]},
    {"smiles": "c1cc(N2CCOCC2)ccn1", "note": "[4-morpholinopyridine]", "values": [
      {"measurement": "fragment cocktail soak, crystal structure", "setting": "uracil-DNA glycosylase [2]", "value": "Fragments bound to L.naiffi uracil-DNA glycosylase: 4-morpholinopyridine (left upper)"}
    ]},
    {"smiles": "O=C(O)c1ccc2cccc(O)c2n1", "note": "[8-hydroxyquinoline-2-carboxylic acid]", "values": [
      {"measurement": "fragment cocktail soak, crystal structure", "setting": "uracil-DNA glycosylase [2]", "value": "DMSO and 8-hydroxyquinoline-2-carboxylic acid (left lower)"}
    ]},
    {"smiles": "O=C(O)c1ccc(-c2ccccc2)o1", "note": "[5-phenyl-2-furoic acid]", "values": [
      {"measurement": "fragment cocktail soak, crystal electron density", "setting": "[3]", "value": "Electron density for 5-Phenyl-2-furoic acid when bound to P.falciparum PGM (left)"}
    ]},
    {"smiles": "O=C(O)c1cc2cc(F)ccc2[nH]1", "note": "[5-fluoroindole-2-carboxylic acid]", "values": [
      {"measurement": "fragment cocktail soak, crystal structure", "setting": "[4]", "value": "Fragments from two different cocktails were found to bind: 5-fluoroindole-2-carboxylic acid (PDB: 3DWS)"}
    ]},
    {"smiles": "Cc1cc(N)c2ccccc2n1", "note": "[4-amino-2-methylquinoline]", "values": [
      {"measurement": "fragment cocktail soak, crystal electron density", "setting": "[5]", "value": "Electron density for 4-amino-2-methylquinoline when bound to L.major adenylate kinase (left)"}
    ]}
  ]
}
